In patent publication US6294573A, “Reverse hydroxamate inhibitors of matrix metalloproteinases” (Abbott Laboratories, priority 2000, dated 2001) one finds IC50 data, which are given here for one molecule.

Usually IC50 stands for the concentration that inhibits the measured activity by half.

The structures appear in SMILES notation.

This test addresses T1, Recombinant truncated stromelysin (human sequence) (Homo sapiens, UniProt P08254).
T1 construct: made in house; host or cells: E. coli
In words: Inhibition of stromelysin (cleavage of thiopeptide ester substrate, DTNB readout at 405 nm). The following applies: 30 minute assay, ambient temperature, pH 6.5, thiopeptide ester substrate. It is filed as biochemical. The procedure:
The efficacy of the compounds of this invention as matrix metalloproteinase inhibitors was determined by measuring the inhibition of stromelysin. The inhibition of stromelysin by the compounds of this invention was determined as follows: Recombinant truncated stromelysin (human sequence) produced in E. coli was prepared by expression and purification of the protein as described by Ye et al. (Biochemistry, 1992, 31, 11231-11235, which is incorporated herein by reference). The enzyme was assayed by its cleavage of the thiopeptide ester substrate Ac-Pro-Leu-Gly-[2-mercapto-4-methylpentanoyl]-Leu-Gly-OEt as described by Weingarten and Feder (Anal. Biochem., 1985, 147, 437-440 (1985), which is incorporated herein by reference) as a substrate of vertebrate collagenase. The reported conditions were modified to allow assays to be carried out in a microtiter plate. Upon hydrolysis of the thioester bond, the released thiol group reacted rapidly with 5,5'-dithio-bis(2-nitrobenzoic acid) (DTNB) to produce a yellow color which was measured by a microtiter plate reader set at 405 nm. The rates of cleavage of the substrate by stromelysin in the presence or absence of inhibitors were measured in a 30 minute assay at ambient temperature. […] The potency of the compounds [IC50 ] was calculated from the inhibition/inhibitor concentration data.

T1 sequence (P08254 100-273 limits assumed): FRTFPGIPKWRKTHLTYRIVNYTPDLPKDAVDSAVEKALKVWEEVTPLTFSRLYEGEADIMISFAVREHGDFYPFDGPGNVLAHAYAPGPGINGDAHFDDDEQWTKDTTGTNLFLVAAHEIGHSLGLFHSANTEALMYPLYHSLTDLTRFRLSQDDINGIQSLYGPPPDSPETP

Regarding `CN1C(=O)N(CCC(COc2ccc(-c3ccc(C#N)cc3)cc2)N(O)C=O)C(=O)C1(C)C` (racemic) [Example 5, (±)-N-[1-[[(4'-cyano-[1,1'-biphenyl]-4-yl)oxy]methyl]-3-(3,4,4-trimethyl-2,5-dioxo-1-imidazolidinyl)propyl]-N-hydroxyformamide], the IC50 is 17 nM.
